Experimental data from patent US4746658A, “2-phenyl-imidazo-pyrazines, -pyridazines and -triazines” (Dr. Karl Thomae GmbH, priority 1983, dated 1988).

System: anesthetized cat
Assay: Determination of the effect on blood pressure and of the positive inotropic effect in the anesthetized cat
Assay type: in vivo
Details: injected into vena femoralis, average, at least 3 cats; for Effect on blood pressure in mm Hg (first figure of pair) / Effect on blood pressure in mm Hg (second figure of pair): arterial pressure in aorta abdominalis
Description: The above pharmacological properties were ascertained for the compounds of the present invention by the standard pharmacological test method described below, and the results of this test for two representative species of the genus are shown in the table below, where
Determination of the effect on blood pressure and of the positive inotropic effect in the anesthetized cat
The tests were carried out on cats which had been anesthetized with sodium pentobarbital (40 mg/kg i.p.). The animals breathed spontaneously. The arterial blood pressure was measured in the aorta abdominalis with a Statham pressure transducer (P 23 Dc). In order to determine the positive inotropic activity, the pressure in the left ventricle was measured with a catheter-tip manometer (Millar PC-350 A). From this the contractility parameter dp/dt was obtained, using an analog differentiator. The test compounds were injected into a vena femoralis. Polydiol 200 was used as the solvent. Each compound was tested on at least 3 cats.

| Compound | Effect on blood pressure in mm Hg (first figure of pair) (0.6 mg/kg) | Effect on blood pressure in mm Hg (second figure of pair) (0.6 mg/kg) | Duration of activity (half life) (0.6 mg/kg) | Increase in dp/dtmax in % (0.6 mg/kg) | Effect on blood pressure in mm Hg (first figure of pair) (0.3 mg/kg) | Effect on blood pressure in mm Hg (second figure of pair) (0.3 mg/kg) | Duration of activity (half life) (0.3 mg/kg) | Increase in dp/dtmax in % (0.3 mg/kg) |
| --- | --- | --- | --- | --- | --- | --- | --- | --- |
| COc1cc(OS(C)(=O)=O)ccc1-c1nc2nccnc2[nH]1 [A, 2-(2-methoxy-4-methanesulfonyloxy-phenyl)-imidazo[4,5-b]pyrazine] | -24 mm Hg | -21 mm Hg | 20 min | 54% | – | – | – | – |
| COc1cc(OS(C)(=O)=O)ccc1-c1nc2cnncc2[nH]1 [B, 2-(2-Methoxy-4-methanesulfonyloxy-phenyl)-imidazo[4,5-d]pyridazine] | – | – | – | – | -31 mm Hg | -18 mm Hg | 38 min | 36% |
